Reference: US10444227B2, “Neural networks formed from cells derived from pluripotent stem cells” (FUJIFILM Cellular Dynamics, Inc., priority 2014, dated 2019)
Entries after “also recorded” stand apart in the source; their conditions may differ.

System: iCell® DopaNeuron cultures
Test: Excitability pharmacology on network bursting, multi-electrode array (MEA) recording
Format: cell-based, human
Settings: FIG. 11
Description: The following methods may be used to culture neural cells on a Mestro Multielectrode Array (MEA). iCell® Neurons are thawed and plated into a 48-well MEA plate pre-coated with […] Polyethyleneimine (PEI; Sigma) solution. On day 1 post-plating, 100% of spent medium is replaced with Neurobasal-A medium (NBA; Life Technologies) +10% KnockOut Serum Replacement (KSR; Life Technologies). On day 5 post-plating, 50% of spent medium is replaced with NBA +10% KSR. On day 8 post-plating, baseline activity is recorded, cells are treated with compounds, and the activity is subsequently recorded.
Data analysis and acquisition may be performed using AxIS Software (Axion Integrated Studio, Axion BioSystems). At or after day 8 post-plating, the neuronal preparation may be suitable for data acquisition. Data acquisition can include a pre-application recording (baseline), a compound application recording, followed by a post-application recording (dose). Electrical activity may be acquired using the AxIS Software. The CDlneuronconfig.datastream file can ensure the appropriate data acquisition settings are loaded into the AxIS Software.
In these experiments, iCell® DopaNeurons, iCell® Neurons, and iCell® Astrocytes were obtained from Cellular Dynamics International, Inc. (Madison, Wis.), mixed and cultured on MEA plates as described in Example 1. Cells were cultured in BrainPhys media (Bardy et al., 2015) obtained from the Salk Institute (La Jolla, Calif.).
Two examples of excitability pharmacology, THIP (top) and L-655,708 (bottom), on iCell® DopaNeuron cultures are shown in FIG. 11. THIP activates tonic inhibition, while L-655,708 decreases tonic inhibition.

Row | SMILES | 'after-quiet' following network burst | continuous rumbling of activity | network burst intensity | network synchrony | post-bursting behaviors | post-burst rumbling time (duration of post-burst rumble) | time (duration) of the entire burst
1 | CCOC(=O)c1ncn2c1[C@@H]1CCCN1C(=O)c1cc(OC)ccc1-2 [L-655,708] | abolished | inducing a continuous rumble of activity that dominated activity; also recorded: inducing a continuous rumbling of activity | neither pharmacological agent altered network burst intensity | de-synchronized the network | both altered post-bursting behaviors |  | 
2 | Oc1noc2c1CCNC2 [THIP] |  |  | neither pharmacological agent altered network burst intensity |  | both altered post-bursting behaviors | shortened | shortened the time of the entire burst; also recorded: shortened the durations of the entire burst
